The compounds below were run against Recombinant human KIF18A (1-467His-tagged) protein (Homo sapiens (Human), UniProt Q8NI77) (assay: KIF18A enzyme assay (microtubule-stimulated ATPase activity, ADP-Glo)). Conditions: 30 nM KIF18A, ATP 75 μM, read-out: inhibitory activity against KIF18A IC50.
Type: biochemical
Experimental: Biological Example 1. Assay for In Vitro Inhibition of Enzymatic Activity of KIF18A by Compounds of the Present Invention
KIF18A enzyme assay: The enzymatic activity of KIF18A after treatment with the compounds was measured by an assay of microtubule-stimulated ATPase activity. ADP generated from the ATPase reaction was measured in this assay. The compounds were serially diluted 2-fold in DMSO over a range of 22 concentration points. Recombinant human KIF18A (1-467His-tagged) protein was expressed using a baculovirus system. Concentrations of KIF18A protein, microtubules, and ATP in the reaction were optimized for a standardized homogenous enzyme assay using an ADP-Glo kinase/ATPase assay kit. A reaction buffer [(15 mM Tris, pH 7.5), 10 mM MgCl2, 0.01% PluronicF-68, 1 μM paclitaxel, and 30 μg/mL pig microtubules] was prepared. The compounds and KIF18A protein (30 nM) were added to the prepared reaction buffer, and the reaction mixture was incubated at room temperature for 15 min, followed by addition of ATP (Km, 75 μM). The resulting reaction mixture was incubated at room temperature for another 15 min. 5 μL of ADP-Glo reagent and 2.5 μL of the reaction mixture were mixed and the resulting mixture was incubated at room temperature for 40 min. 10 μL of ADP-Glo detection reagent was added and the mixture was incubated at room temperature for 40 min. Luminescence was measured using a microplate reader and compared with that of the DMSO group, and then the inhibition percentages and IC50 values of the compounds were calculated.

Recombinant human KIF18A (1-467His-tagged) protein, sequence (Q8NI77 1-467): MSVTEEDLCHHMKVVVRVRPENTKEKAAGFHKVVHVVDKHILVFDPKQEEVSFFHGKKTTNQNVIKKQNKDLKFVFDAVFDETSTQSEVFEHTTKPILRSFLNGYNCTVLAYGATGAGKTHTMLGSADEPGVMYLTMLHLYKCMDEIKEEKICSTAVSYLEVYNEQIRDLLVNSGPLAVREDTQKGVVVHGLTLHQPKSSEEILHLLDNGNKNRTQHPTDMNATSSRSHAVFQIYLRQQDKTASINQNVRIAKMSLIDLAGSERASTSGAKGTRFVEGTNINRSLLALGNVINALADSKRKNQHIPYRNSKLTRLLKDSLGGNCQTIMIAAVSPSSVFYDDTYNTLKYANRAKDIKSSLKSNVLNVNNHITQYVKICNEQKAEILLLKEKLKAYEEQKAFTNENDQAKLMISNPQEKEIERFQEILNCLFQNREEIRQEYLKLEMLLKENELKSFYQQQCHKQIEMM
Recombinant human KIF18A (1-467His-tagged) protein, sequence (P02550 whole entry partner): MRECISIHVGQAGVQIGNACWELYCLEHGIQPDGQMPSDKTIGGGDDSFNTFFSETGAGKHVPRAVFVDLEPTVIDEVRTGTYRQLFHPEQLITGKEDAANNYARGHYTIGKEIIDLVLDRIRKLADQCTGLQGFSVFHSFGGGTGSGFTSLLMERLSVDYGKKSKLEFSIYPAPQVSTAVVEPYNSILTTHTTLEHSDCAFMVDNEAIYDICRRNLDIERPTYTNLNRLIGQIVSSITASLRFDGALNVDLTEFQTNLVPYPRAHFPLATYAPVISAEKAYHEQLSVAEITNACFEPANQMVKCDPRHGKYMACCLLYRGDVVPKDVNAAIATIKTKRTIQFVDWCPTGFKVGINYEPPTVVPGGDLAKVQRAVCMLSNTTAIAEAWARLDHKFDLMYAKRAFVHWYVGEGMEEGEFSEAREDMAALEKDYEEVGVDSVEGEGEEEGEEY
Recombinant human KIF18A (1-467His-tagged) protein, sequence (P02554 whole entry partner): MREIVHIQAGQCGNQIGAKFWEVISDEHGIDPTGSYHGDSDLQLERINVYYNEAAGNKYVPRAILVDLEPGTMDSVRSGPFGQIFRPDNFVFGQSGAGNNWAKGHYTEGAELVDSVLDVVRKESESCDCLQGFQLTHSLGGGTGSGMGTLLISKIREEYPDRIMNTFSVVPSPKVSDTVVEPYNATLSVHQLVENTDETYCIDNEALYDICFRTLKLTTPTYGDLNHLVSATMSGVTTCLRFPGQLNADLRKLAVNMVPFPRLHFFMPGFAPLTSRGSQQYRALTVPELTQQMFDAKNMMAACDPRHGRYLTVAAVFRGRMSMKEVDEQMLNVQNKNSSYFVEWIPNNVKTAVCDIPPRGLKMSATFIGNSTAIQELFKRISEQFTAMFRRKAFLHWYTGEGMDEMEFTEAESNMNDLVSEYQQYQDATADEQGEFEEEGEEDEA

IC50, ≤ 100 nM:
C[C@H]1CN(c2cc(C(=O)Nc3ccc(NS(=O)(=O)CCO)cc3N3CCC4(CC3)CC4)cc3c2OCC3)CCO1 [Compound 35]
O=C(Nc1ccc(NS(=O)(=O)CCO)cc1N1CCC2(CC1)CC2)c1cc2c(c(N3CC(F)(F)C3)c1)OCC2 [Compound 36]
O=C(Nc1ccc(NS(=O)(=O)CCO)cc1N1CCC2(CC1)CC2)c1cc2c(c(OCCC(F)(F)F)c1)OCC2 [Compound 37]
O=C(Nc1ccc(NS(=O)(=O)CCO)cc1N1CCC2(CC1)CC2)c1cc2c(c(N3CCC4(CC4)C3)c1)OCC2 [Compound 38]
O=C(Nc1ccc(NS(=O)(=O)CCO)cc1N1CCC2(CC1)CC2)c1cc2c(c(OC3CCC3)c1)OCC2 [Compound 39]
CC1(F)CCN(c2cc(C(=O)Nc3ccc(NS(=O)(=O)CCO)cc3N3CCC4(CC3)CC4)cc3c2OCC3)C1 (centres unmarked) [Compound 40]
O=C(Nc1ccc(NS(=O)(=O)CCO)cc1N1CCC2(CC1)CC2)c1cc2c(c(N3CCC(F)CC3)c1)OCC2 [Compound 41]
O=C(Nc1ccc(NS(=O)(=O)CCO)cc1N1CCC2(CC1)CC2)c1cc2c(c(N3CC4CC4C3)c1)OCC2 (centres unmarked) [Compound 42]
CC(C)(CO)Nc1cc(C(=O)Nc2ccc(NS(=O)(=O)CCO)cc2N2CCC3(CC2)CC3)cc2c1OCC2 [Compound 43]
O=C(Nc1ccc(NS(=O)(=O)CCO)cc1N1CCC2(CC1)CC2)c1cc2c(c(N3CCOCC3)c1)OCC2 [Compound 44]
C[C@@H](CO)S(=O)(=O)Nc1ccc(NC(=O)c2cc3c(c(N4CCC(F)(F)CC4)c2)OCC3)c(N2CCC3(CC2)CC3)c1 [Compound 45]
C[C@H](CO)S(=O)(=O)Nc1ccc(NC(=O)c2cc3c(c(N4CCC(F)(F)CC4)c2)OCC3)c(N2CCC3(CC2)CC3)c1 [Compound 46]
C[C@@H]1CN(c2cc(C(=O)Nc3ccc(NS(=O)(=O)[C@@H](C)CO)cc3N3CCC4(CC3)CC4)cc3c2OCC3)CCO1 [Compound 47]
C[C@@H]1CN(c2cc(C(=O)Nc3ccc(NS(=O)(=O)[C@H](C)CO)cc3N3CCC4(CC3)CC4)cc3c2OCC3)CCO1 [Compound 48]
C[C@@H]1CN(c2cc(C(=O)Nc3ccc(S(=O)(=O)NCCO)cc3N3CCC4(CC3)CC4)cc3c2OCC3)CCO1 [Compound 50]
C[C@H]1CN(c2cc(C(=O)Nc3ccc(S(=O)(=O)NCCO)cc3N3CCC4(CC3)CC4)cc3c2OCC3)CCO1 [Compound 51]
O=C(Nc1ccc(S(=O)(=O)NCCO)cc1N1CCC2(CC1)CC2)c1cc2c(c(N3CC(F)(F)C3)c1)OCC2 [Compound 52]
O=C(Nc1ccc(S(=O)(=O)NCCO)cc1N1CCC2(CC1)CC2)c1cc2c(c(OCCC(F)(F)F)c1)OCC2 [Compound 53]
O=C(Nc1ccc(S(=O)(=O)NCCO)cc1N1CCC2(CC1)CC2)c1cc2c(c(N3CCC4(CC4)C3)c1)OCC2 [Compound 54]
O=C(Nc1ccc(S(=O)(=O)NCCO)cc1N1CCC2(CC1)CC2)c1cc2c(c(OC3CCC3)c1)OCC2 [Compound 55]
CC1(F)CCN(c2cc(C(=O)Nc3ccc(S(=O)(=O)NCCO)cc3N3CCC4(CC3)CC4)cc3c2OCC3)C1 (centres unmarked) [Compound 56]
O=C(Nc1ccc(S(=O)(=O)NCCO)cc1N1CCC2(CC1)CC2)c1cc2c(c(N3CCC(F)CC3)c1)OCC2 [Compound 57]
O=C(Nc1ccc(S(=O)(=O)NCCO)cc1N1CCC2(CC1)CC2)c1cc2c(c(N3CC4CC4C3)c1)OCC2 (centres unmarked) [Compound 58]
CC(C)(CO)Nc1cc(C(=O)Nc2ccc(S(=O)(=O)NCCO)cc2N2CCC3(CC2)CC3)cc2c1OCC2 [Compound 59]
O=C(Nc1ccc(S(=O)(=O)NCCO)cc1N1CCC2(CC1)CC2)c1cc2c(c(N3CCOCC3)c1)OCC2 [Compound 60]
C[C@@H](CO)NS(=O)(=O)c1ccc(NC(=O)c2cc3c(c(N4CCC(F)(F)CC4)c2)OCC3)c(N2CCC3(CC2)CC3)c1 [Compound 61]
C[C@H](CO)NS(=O)(=O)c1ccc(NC(=O)c2cc3c(c(N4CCC(F)(F)CC4)c2)OCC3)c(N2CCC3(CC2)CC3)c1 [Compound 62]
C[C@@H]1CN(c2cc(C(=O)Nc3ccc(S(=O)(=O)N[C@@H](C)CO)cc3N3CCC4(CC3)CC4)cc3c2OCC3)CCO1 [Compound 63]
C[C@H](CO)NS(=O)(=O)c1ccc(NC(=O)c2cc3c(c(N4CCO[C@H](C)C4)c2)OCC3)c(N2CCC3(CC2)CC3)c1 [Compound 64]
CC1(F)CCN(c2nc(NC(=O)c3ccc(NS(=O)(=O)CCO)cc3N3CCC4(CC3)CC4)cc3c2OCC3)C1 (centres unmarked) [Compound 72]
O=C(Nc1cc2c(c(N3CCC(F)CC3)n1)OCC2)c1ccc(NS(=O)(=O)CCO)cc1N1CCC2(CC1)CC2 [Compound 73]
O=C(Nc1cc2c(c(N3CC4CC4C3)n1)OCC2)c1ccc(NS(=O)(=O)CCO)cc1N1CCC2(CC1)CC2 (centres unmarked) [Compound 74]
CC(C)(CO)Nc1nc(NC(=O)c2ccc(NS(=O)(=O)CCO)cc2N2CCC3(CC2)CC3)cc2c1OCC2 [Compound 75]
O=C(Nc1cc2c(c(N3CCOCC3)n1)OCC2)c1ccc(NS(=O)(=O)CCO)cc1N1CCC2(CC1)CC2 [Compound 76]
C[C@@H](CO)S(=O)(=O)Nc1ccc(C(=O)Nc2cc3c(c(N4CCC(F)(F)CC4)n2)OCC3)c(N2CCC3(CC2)CC3)c1 [Compound 77]
C[C@H](CO)S(=O)(=O)Nc1ccc(C(=O)Nc2cc3c(c(N4CCC(F)(F)CC4)n2)OCC3)c(N2CCC3(CC2)CC3)c1 [Compound 78]
C[C@@H]1CN(c2nc(NC(=O)c3ccc(NS(=O)(=O)[C@@H](C)CO)cc3N3CCC4(CC3)CC4)cc3c2OCC3)CCO1 [Compound 79]
C[C@@H]1CN(c2nc(NC(=O)c3ccc(NS(=O)(=O)[C@H](C)CO)cc3N3CCC4(CC3)CC4)cc3c2OCC3)CCO1 [Compound 80]
C[C@H]1CN(c2nc(NC(=O)c3ccc(S(=O)(=O)NCCO)cc3N3CCC4(CC3)CC4)cc3c2OCC3)CCO1 [Compound 83]
O=C(Nc1cc2c(c(N3CC(F)(F)C3)n1)OCC2)c1ccc(S(=O)(=O)NCCO)cc1N1CCC2(CC1)CC2 [Compound 84]
O=C(Nc1cc2c(c(OCCC(F)(F)F)n1)OCC2)c1ccc(S(=O)(=O)NCCO)cc1N1CCC2(CC1)CC2 [Compound 85]
O=C(Nc1cc2c(c(N3CCC4(CC4)C3)n1)OCC2)c1ccc(S(=O)(=O)NCCO)cc1N1CCC2(CC1)CC2 [Compound 86]
O=C(Nc1cc2c(c(OC3CCC3)n1)OCC2)c1ccc(S(=O)(=O)NCCO)cc1N1CCC2(CC1)CC2 [Compound 87]
CC1(F)CCN(c2nc(NC(=O)c3ccc(S(=O)(=O)NCCO)cc3N3CCC4(CC3)CC4)cc3c2OCC3)C1 (centres unmarked) [Compound 88]
O=C(Nc1cc2c(c(N3CCC(F)CC3)n1)OCC2)c1ccc(S(=O)(=O)NCCO)cc1N1CCC2(CC1)CC2 [Compound 89]
O=C(Nc1cc2c(c(N3CC4CC4C3)n1)OCC2)c1ccc(S(=O)(=O)NCCO)cc1N1CCC2(CC1)CC2 (centres unmarked) [Compound 90]
CC(C)(CO)Nc1nc(NC(=O)c2ccc(S(=O)(=O)NCCO)cc2N2CCC3(CC2)CC3)cc2c1OCC2 [Compound 91]

Source: patent US20250197382A1, “KIF18A INHIBITOR” (WIGEN BIOMEDICINE TECHNOLOGY (SHANGHAI) CO., LTD., priority 2022, published 2025)
